Reference: patent US10072011B2, “Substituted bridged urea analogs as sirtuin modulators” (GlaxoSmithKline Intellectual Property (No.2) Limited, priority 2014, dated 2018)
Like-named read-outs stand apart in the source and are kept apart here.

Target: T1, SIRT1 (Homo sapiens, UniProt Q96EB6)
T1 sequence (Q96EB6 1-747): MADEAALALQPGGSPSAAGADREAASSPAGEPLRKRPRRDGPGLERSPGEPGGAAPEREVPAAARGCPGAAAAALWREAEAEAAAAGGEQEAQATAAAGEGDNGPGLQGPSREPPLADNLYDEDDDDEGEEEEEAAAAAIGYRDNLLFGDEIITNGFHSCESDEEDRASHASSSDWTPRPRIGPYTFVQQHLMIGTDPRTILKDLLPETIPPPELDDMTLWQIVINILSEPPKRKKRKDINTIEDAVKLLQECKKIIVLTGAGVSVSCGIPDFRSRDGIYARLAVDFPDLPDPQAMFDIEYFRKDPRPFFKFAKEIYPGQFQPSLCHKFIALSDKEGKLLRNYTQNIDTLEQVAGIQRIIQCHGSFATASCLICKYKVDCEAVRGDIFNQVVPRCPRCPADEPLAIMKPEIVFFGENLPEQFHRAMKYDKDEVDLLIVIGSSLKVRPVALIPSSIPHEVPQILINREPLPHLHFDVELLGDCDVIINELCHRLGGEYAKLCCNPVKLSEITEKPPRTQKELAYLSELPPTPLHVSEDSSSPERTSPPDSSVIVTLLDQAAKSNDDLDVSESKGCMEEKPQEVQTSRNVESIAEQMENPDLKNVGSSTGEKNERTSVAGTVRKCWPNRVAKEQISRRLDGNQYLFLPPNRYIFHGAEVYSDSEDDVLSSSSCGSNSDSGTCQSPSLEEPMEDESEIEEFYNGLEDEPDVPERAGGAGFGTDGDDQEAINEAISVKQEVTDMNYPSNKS
Assay: Trp mass spectrometry assay of SIRT1 activation (Ac-R-H-K-K(Ac)-W-NH2 peptide)
Assay type: biochemical
Conditions: for Emax: 25 min, read-out: TRP MAX RESP (percent maximum fold activation)
Procedure, shortened: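 N-terminal His-tagged human SIRT1, expressed in BL21(DE3) and purified, was incubated 25 min with an acetylated Trp peptide and NAD plus test compound at varying concentrations, then quenched with formic acid. OAADPR or deacetylated peptide was quantified by mass spectrometry versus compound-free control; EC1.5 is the concentration giving 50% activity increase, with percent maximum activation.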

[1] = Trp peptide 0.5 μM, 120 μM βNAD+, 10 nM SIRT1, 25 min at 25° C., relative to control (100%)
[2] = Trp peptide 0.5 μM, 120 μM βNAD+, 10 nM SIRT1, 25 min at 25° C.

| SMILES | Emax [1] [%] | TRP Activity (EC1.5, concentration of test compound that results in 150% activation of SIRT1) [2] | Emax [%] |
| --- | --- | --- | --- |
| COc1ccnc(NC(=O)N2c3nc(C(=O)NCC(F)(F)F)ccc3N3CC[C@H]2C3)c1 [Example 136, (4S)—N5-(4-methoxypyridin-2-yl)-N7-(2,2,2-trifluoroethyl)-3,4-dihydro-1,4-methanopyrido[2,3-b][1,4]diazepine-5,7(2H)-dicarboxamide] | > 150 | A (EC1.5<1 μM) | – |
| O=C(NC1CCCCC1)c1ccc2c(n1)N(C(=O)Nc1ccccn1)[C@H]1CCN2C1 [Example 27, (4S)—N7-cyclohexyl-N5-(pyridin-2-yl)-3,4-dihydro-1,4-methanopyrido[2,3-b][1,4]diazepine-5,7(2H)-dicarboxamide] | – | A (EC1.5<1 μM) | > 150 |
| C[C@@H](NC(=O)c1ccc2c(n1)N(C(=O)Nc1cccnn1)[C@H]1CCN2C1)C(F)(F)F [Example 77, (4S)—N5-(pyridazin-3-yl)-N7-((R)-1,1,1-trifluoropropan-2-yl)-3,4-dihydro-1,4-methanopyrido[2,3-b][1,4]diazepine-5,7(2H)-dicarboxamide] | > 150 | A (EC1.5<1 μM) | – |
| C[C@@H](NC(=O)c1ccc2c(n1)N(C(=O)Nc1ccc(F)cn1)[C@H]1CCN2C1)C(F)(F)F [Example 129, (4S)—N5-(5-fluoropyridin-2-yl)-N7-((R)-1,1,1-trifluoropropan-2-yl)-3,4-dihydro-1,4-methanopyrido[2,3-b][1,4]diazepine-5,7(2H)-dicarboxamide] | > 150 | A (EC1.5<1 μM) | – |
| O=C(NCC(F)(F)F)c1ccc2c(n1)N(C(=O)Nc1cc(OC[C@H](O)CO)ccn1)[C@H]1CCN2C1 [Example 89, (4S)—N5-(4-((R)-2,3-dihydroxypropoxy)pyridin-2-yl)-N7-(2,2,2-trifluoroethyl)-3,4-dihydro-1,4-methanopyrido[2,3-b][1,4]diazepine-5,7(2H)-dicarboxamide] | > 150 | A (EC1.5<1 μM) | – |
| Cc1cc(NC(=O)N2c3nc(C(=O)N[C@H](C)C(F)(F)F)ccc3N3CC[C@H]2C3)ncc1F [Example 238, (4S)—N5-(5-fluoro-4-methylpyridin-2-yl)-N7-((R)-1,1,1-trifluoropropan-2-yl)-3,4-dihydro-1,4-methanopyrido[2,3-b][1,4]diazepine-5,7(2H)-dicarboxamide] | > 150 | A (EC1.5<1 μM) | – |
| Cn1ncc2c(NC(=O)N3c4nc(C(=O)NCC(F)(F)F)ccc4N4CC[C@H]3C4)cccc21 [Example 220, (4S)—N5-(1-methyl-1H-indazol-4-yl)-N7-(2,2,2-trifluoroethyl)-3,4-dihydro-1,4-methanopyrido[2,3-b][1,4]diazepine-5,7(2H)-dicarboxamide] | > 150 | B (EC1.5 1-25 μM) | – |
| O=C(NCC(F)(F)F)c1ccc2c(n1)N(C(=O)Nc1cnccn1)[C@H]1CCN2C1 [Example 63, (4S)—N5-(pyrazin-2-yl)-N7-(2,2,2-trifluoroethyl)-3,4-dihydro-1,4-methanopyrido[2,3-b][1,4]diazepine-5,7(2H)-dicarboxamide] | – | A (EC1.5<1 μM) | > 150 |
| C[C@@H](NC(=O)c1ccc2c(n1)N(C(=O)Nc1cc(NCCO)ccn1)[C@H]1CCN2C1)C(F)(F)F [Example 309, (4S)—N5-(4-((2-hydroxyethyl)amino)pyridin-2-yl)-N7-((R)-1,1,1-trifluoropropan-2-yl)-3,4-dihydro-1,4-methanopyrido[2,3-b][1,4]diazepine-5,7(2H)-dicarboxamide] | < 150 | A (EC1.5<1 μM) | – |
| O=C(NCC(F)F)c1ccc2c(n1)N(C(=O)Nc1ccc(F)cn1)[C@H]1CCN2C1 [Example 69, (4S)—N7-(2,2-difluoroethyl)-N5-(5-fluoropyridin-2-yl)-3,4-dihydro-1,4-methanopyrido[2,3-b][1,4]diazepine-5,7(2H)-dicarboxamide] | – | A (EC1.5<1 μM) | > 150 |
| C[C@@H](NC(=O)c1ccc2c(n1)N(C(=O)Nc1ccc(OC[C@@H](O)CO)nn1)[C@H]1CCN2C1)C(F)(F)F [Example 234, (4S)—N5-(6-((S)-2,3-dihydroxypropoxy)pyridazin-3-yl)-N7-((R)-1,1,1-trifluoropropan-2-yl)-3,4-dihydro-1,4-methanopyrido[2,3-b][1,4]diazepine-5,7(2H)-dicarboxamide] | > 150 | A (EC1.5<1 μM) | – |
| C#Cc1ccnc(NC(=O)N2c3nc(C(=O)N[C@H](C)C(F)(F)F)ccc3N3CC[C@H]2C3)c1 [Example 299, (4S)—N5-(4-ethynylpyridin-2-yl)-N7-((R)-1,1,1-trifluoropropan-2-yl)-3,4-dihydro-1,4-methanopyrido[2,3-b][1,4]diazepine-5,7(2H)-dicarboxamide] | < 150 | A (EC1.5<1 μM) | – |
| O=C(N[C@H](CO)C(F)(F)F)c1ccc2c(n1)N(C(=O)Nc1ccc(F)cn1)[C@H]1CCN2C1 [Example 82, (4S)—N5-(5-fluoropyridin-2-yl)-N7-((R)-1,1,1-trifluoro-3-hydroxypropan-2-yl)-3,4-dihydro-1,4-methanopyrido[2,3-b][1,4]diazepine-5,7(2H)-dicarboxamide] | > 150 | A (EC1.5<1 μM) | – |
| Cc1ncc(-c2ccnc(NC(=O)N3c4nc(C(=O)N[C@H](C)C(F)(F)F)ccc4N4CC[C@H]3C4)n2)o1 [Example 156, (4S)—N5-(4-(2-methyloxazol-5-yl)pyrimidin-2-yl)-N7-((R)-1,1,1-trifluoropropan-2-yl)-3,4-dihydro-1,4-methanopyrido[2,3-b][1,4]diazepine-5,7(2H)-dicarboxamide] | > 150 | A (EC1.5<1 μM) | – |

Second part, led by results:

| Emax [1] [%] | TRP Activity (EC1.5, concentration of test compound that results in 150% activation of SIRT1) [2] | SMILES | Emax [%] |
| --- | --- | --- | --- |
| > 150 | A (EC1.5<1 μM) | COCC(NC(=O)c1ccc2c(n1)N(C(=O)Nc1ccccn1)[C@H]1CCN2C1)C1CC1 (single isomer, unassigned) [Example 59] | – |
| > 150 | B (EC1.5 1-25 μM) | COCC(O)CNC(=O)c1ccc2c(n1)N(C(=O)Nc1ccccn1)[C@H]1CCN2C1 (single isomer, unassigned) [Example 214] | – |
| > 150 | B (EC1.5 1-25 μM) | COCC(C)NC(=O)c1ccc2c(n1)N(C(=O)Nc1ccccn1)[C@H]1CCN2C1 (stereo partly drawn) [Example 11, (4S)—N-7-(1-methoxypropan-2-yl)-N-5-(pyridin-2-yl)-3,4-dihydro-1,4-methanopyrido [2,3-b] [1, 4] diazepine-5, 7(2H)-dicarboxamide] | – |
| > 150 | A (EC1.5<1 μM) | O=C(NC[C@H](O)C(F)(F)F)c1ccc2c(n1)N(C(=O)Nc1ccccn1)[C@H]1CCN2C1 [Example 52, (4S)—N5-(pyridin-2-yl)-N7-((S)-3,3,3-trifluoro-2-hydroxypropyl)-3,4-dihydro-1,4-methanopyrido[2,3-b][1,4]diazepine-5,7(2H)-dicarboxamide] | – |
| – | A (EC1.5<1 μM) | COCC(NC(=O)c1ccc2c(n1)N(C(=O)Nc1ccccn1)[C@H]1CCN2C1)C1CC1 (single isomer, unassigned) [Example 60] | – |
| > 150 | B (EC1.5 1-25 μM) | C[C@@H](O)CNC(=O)c1ccc2c(n1)N(C(=O)Nc1ccccn1)[C@H]1CCN2C1 [Example 203, (4S)—N7-((R)-2-hydroxypropyl)-N5-(pyridin-2-yl)-3,4-dihydro-1,4-methanopyrido[2,3-b][1,4]diazepine-5,7(2H)-dicarboxamide] | – |
| > 150 | A (EC1.5<1 μM) | O=C(NCCC(F)(F)F)c1ccc2c(n1)N(C(=O)Nc1ccccn1)[C@H]1CCN2C1 [Example 124, (4S)—N5-(pyridin-2-yl)-N7-(3,3,3-trifluoropropyl)-3,4-dihydro-1,4-methanopyrido[2,3-b][1,4]diazepine-5,7(2H)-dicarboxamide] | – |
